Like-named read-outs stand apart in the source and are kept apart here.
Legend:
aryl sulfotransferases = conditions: cited from earlier work
[1] = test system: VSV-G pseudotyped MLV vector (MMP-nls-lacZ[VSV-G]); type: cell-based, murine leukemia virus (MLV)
[2] = test system: VSV-G pseudotyped HIV-1 vector NL43E-R-Luc; type: cell-based
[3] = test system: MLV LTR-driven mRNA transcription (pCMMP-EGFP); type: cell-based, murine leukemia virus (MLV)
[4] = test system: VSV-G pseudotyped MLV vector (pLEGFP); type: cell-based, murine leukemia virus (MLV)
[5] = test system: MLV vector pMMp-nls-LacZ[VSV-G]; type: cell-based, murine leukemia virus (MLV)
[6] = test system: resident (pCMMP-SEAP) and newly acquired (MMP-nls-lacZ[VSV-G]) MLV proviruses; type: cell-based, murine leukemia virus (MLV)
[7] = test system: MLV vector pMMp-nls-LacZ[VSV-G]; type: cell-based, murine leukemia virus (MLV); remark: listed apart in the source
HIV [8] = test: HIV infection in low versus high sulfate media; conditions: FIG. 20B
HIV [9] = test: HIV infection with suboptimal (20 mM) chlorate; conditions: FIG. 21B

In the case of `COc1ccccc1O` [guaiacol], the “quantities that interfere with aryl sulfotransferases” value (aryl sulfotransferases) is listed as “mM”, the “fold less blue cells as compared to untreated cells” value [1] is listed as ~3.4 fold and the “reduction in HIV LTR-driven reporter gene expression” value [2] is listed as 8 fold. For the same compound, the “reduction of viral-derived transcript levels, normalized to β-actin” value ([3]; CHO-K1 cells, 100 mM chlorate, 5 mM guaiacol or both, FIGS. 6D, 6E) was 17 fold.

In the case of `Oc1cc(Cl)ccc1Oc1ccc(Cl)cc1Cl` [trichlosan], the “quantities that interfere with aryl sulfotransferases” value (aryl sulfotransferases) is given as “μM”.

With `[O-][Cl+2]([O-])O` [chlorate] the “effect on accumulation of viral reverse transcription products” value [4] was “no effect”, the “fold less blue cells as compared to untreated cells” value [1] was “approximately 6.7 fold” and the “time of addition that had no effect on viral reporter gene expression” value [1] was ≥ 18 hpi. For the same compound, the “time of addition that led to a reduction in subsequent viral reporter gene expression” value [1] was “up to 16 hpi”, the “reduction in HIV LTR-driven reporter gene expression” value [2] was 10 fold and the “additional reduction of MLV infection” value [5] was 2 fold. The “effect on gene expression from newly acquired versus resident proviruses” value [6] was “affected gene expression from the newly acquired, but not the resident proviruses”, the “influence on β-galactosidase expression from a resident MLV vector” value [6] was “not to influence” and the “fold less susceptible to infection, by reporter gene expression” value [7] was “approximately 9.3 fold”. For the same compound, the “reduction of viral-derived transcript levels, normalized to β-actin” value [3] was 11 fold.

With `Cc1cn([C@H]2C[C@H](N=[N+]=[N-])[C@@H](CO)O2)c(=O)[nH]c1=O` [AZT] the “inhibition of HIV infection in low sulfate media versus high sulfate media” value (HIV [8]) was “unaffected by low sulfate conditions” and the “inhibition of HIV infection in media containing 20 mM chlorate versus standard media” value (HIV [9]) was “unaffected by 20 mM chlorate”.

— patent publication US20110165266A1 (priority 2008, published 2011)
